Measurements reported in ChEMBL document CHEMBL3507680, “University of Dundee, Gates Library screen for HepG2 cell viability”.

Assay: Human HepG2 cell viability assay in 384 well format
Assay type: toxicity, cell-based
Set-up: dose 125 nL, time 70.5 hour; concentration not given beside the values
Conditions: HepG2 cells, read-out: Inhibition

Row | Compound | cytotoxicity at 70.5 h [%]
1 | CCNC(=O)N1CCC(c2ccccc2)C1 (stereo unspecified) | 2.66
2 | CS(=O)(=O)N1CCC(CNC(=O)c2cnccn2)CC1 | 31.3
3 | COc1ccc(CN2CC[C@H](c3nnc(-c4ccco4)o3)C2)cc1 | 23
4 | NC(=O)CN1C(=O)CO[C@H]2CN(Cc3ccc(Cl)cc3)C[C@H]21 | 13
5 | CCNC(=O)N1C[C@@H]2OCC(=O)N(CC3CCCCC3)[C@@H]2C1 | -3.95
6 | COCC(=O)N[C@H]1C[C@@H](Cc2cc(CN3CCCCC3)on2)C1(C)C | 24.1
7 | CN1CCOC[C@H]1c1nc(-c2cccc(F)c2)c[nH]1 | 2.61
8 | CC(C)(C)c1coc([C@@H]2COCCN2Cc2ccccn2)n1 | 2.91
9 | CC(C)(C)c1coc([C@@H]2COCCN2Cc2ncc[nH]2)n1 | -0.512
10 | CN1CCC(N2CCOC[C@H]2c2nc(-c3ccncc3)c[nH]2)CC1 | 3.14
11 | CC(=O)N1CC[C@H](c2nc3cc(F)ccc3o2)C1 | 2.32
12 | CCN(CC)C[C@H]1CN2CC[C@H]1C[C@@H]2CNC(=O)Nc1ccsc1 | -8.02
13 | Cn1cncc1-c1nnc([C@H]2CCN(Cc3ccc(CO)o3)C2)o1 | 5.94
14 | Cn1cncc1-c1nnc([C@H]2CCN(Cc3ncc[nH]3)C2)o1 | 2.99
15 | COc1ccc(-c2nnc([C@H]3CCN(CC(C)(C)C)C3)o2)cc1 | -1.13
16 | c1cc(-c2nnc([C@H]3CCN(C4CCCCC4)C3)o2)ccn1 | -0.595
17 | COc1cccc(CN2CC[C@H](c3nnc(C)o3)C2)c1 | 2.22
18 | c1cc(-c2nnc([C@H]3CCN(C4CCOCC4)C3)o2)ccn1 | 2.55
19 | c1ccc2c(Cc3nnc([C@H]4CCN(C5CCC5)C4)o3)c[nH]c2c1 | -6.08
20 | Cc1ccc(CN2CC[C@H](c3nnc(-c4ccco4)o3)C2)cc1 | 6.16
21 | CCCc1nnc([C@H]2CCN(Cc3ncc[nH]3)C2)o1 | -1.6
22 | O=C(C1CC1)N1C[C@@H](F)[C@@H](OCc2nc3ccccc3[nH]2)C1 | 4.35
23 | COc1ccc(CN2C[C@@H](F)[C@@H](OCc3nc4cnccc4[nH]3)C2)cn1 | -4.62
24 | N#Cc1cccc(CN2C[C@@H](F)[C@@H](OCc3nc4ccccc4[nH]3)C2)c1 | -2.32
25 | Cc1cccc(CN2C[C@@H](F)[C@@H](OCc3nc4ccccc4[nH]3)C2)n1 | -1.57
26 | COc1ccc(CN2C[C@@H](F)[C@@H](OCc3nc4ccccc4[nH]3)C2)cn1 | -2.98

Row | Compound | cytotoxicity at 70.5 h [%]
27 | CC(C)N1CCC(NCc2cccnc2N(C)C)CC1 | 2.11
28 | Cc1nc(N2CCN(C)CC2)ncc1C(=O)N1CCC(O)(CO)CC1 | -6.38
29 | CN(CCCc1cnn(C)c1)C(=O)C1COc2ccccc2C1 (stereo unspecified) | -5.74
30 | CCCc1noc(CN(C)C(=O)C2COc3ccccc3C2)n1 (stereo unspecified) | -16.1
31 | O=S1(=O)COCCN1Cc1cccc(Cl)c1 | -8.17
32 | CCn1cc(CN2CCCC(CO)(CCc3ccccc3)C2)c(C)n1 (stereo unspecified) | -7.26
33 | CCc1cc(NCCc2ccc(O)cc2)n2nccc2n1 | 2.9
34 | COc1ccccc1[C@@H]1CN(Cc2cc(C(C)(C)C)[nH]n2)C[C@H]1C(=O)O | -7.86
35 | O=C(CCCc1cn[nH]c1)N1C[C@@H](CN2CCOCC2)[C@@H](CO)C1 | 17.7
36 | CN(CCc1ccccc1)Cc1cc(C(=O)N2CCCC2(C)C)no1 | 8.4
37 | O=C(c1cnccn1)N1C[C@@H]2CC[C@H](C1)N(C(=O)Cc1ccsc1)C2 | -1.28
38 | COc1ccc(C(=O)C2CCCN(Cc3ccncc3)C2)c(OC)c1 (stereo unspecified) | -9.3
39 | CCN(CC)c1ccc(-c2nc(-c3cccc(OC)c3OC)no2)cn1 | -7.4
40 | COC(=O)c1ccc2ccn(CC3CCNC3)c(=O)c2c1 (stereo unspecified) | -1.63
41 | Cc1ccsc1CN(CCN(C)C)Cc1ccccn1 | -4.97
42 | Cc1ccccc1CSc1nc(N)cc(N2C[C@H](O)[C@@H](N(C)C)C2)n1 | -2.01
43 | COC(=O)N1C[C@H]2CC[C@@H]1CN(Cc1cscn1)C2 | 1.18
44 | CC(C)Oc1cccc(C(=O)C2CCCN(C(=O)c3ncn[nH]3)C2)c1 (stereo unspecified) | -9.49
45 | O=C(CN1CCCC(c2ccc(C(=O)O)cc2)C1)NC1CC1 (stereo unspecified) | -5.55
46 | COc1ccccc1CN(C)C(=O)c1cc(CN2CCC(O)CC2)on1 | -0.685
47 | CNC(=O)c1cccc(CNC(=O)C2CC(=O)N(CCN(C)C)C2)c1 (stereo unspecified) | -5.17
48 | COCC(O)CNC(=O)c1cnc(-c2ccccc2)nc1O (stereo unspecified) | -11.4
49 | CCCC(C)CN1CCC(n2cc(C3CCCC3)nn2)CC1 (stereo unspecified) | -6.08
50 | CCn1nc(CC(C)C)cc1C(=O)N1C[C@H](O)[C@@H](N2CCCCC2)C1 | -4.55
51 | CCc1ncc(CNC2CC(=O)N(CCc3cccc(Cl)c3)C2)cn1 (stereo unspecified) | -4.07
52 | CCn1c(Cn2cncn2)nnc1C1CCN(Cc2ccncc2)CC1 | -6.34

Row | Compound | cytotoxicity at 70.5 h [%]
53 | CC(C)c1nccn1CCCNC(=O)c1ccc(N(C)C)nc1 | -1.73
54 | Cn1cccc1C(=O)N1CCCN(CCCc2ccccc2)CC1 | 7.34
55 | Cn1c(Cn2ccnc2)nnc1C1CCN(C(=O)C2(C)CC2)CC1 | -9.41
56 | CCn1nc(C)c(CCNC(=O)C2CCCN(C(=O)N(C)C)C2)c1C (stereo unspecified) | -11.9
57 | Cc1nn(C)cc1C(=O)N1C[C@H]2CC[C@@H]1CN(S(=O)(=O)N(C)C)C2 | -4.81
58 | CCOCCn1nc(C)cc1C(=O)N1CC[C@](C)(O)[C@H](C)C1 | -8.61
59 | Cc1cc(N2CCC3(CCC(=O)N(CC4CC4)C3)CC2)nc(N)n1 | -9.89
60 | O=C(O)CCc1cc2n(n1)CCCN(C(=O)c1ccc3cc[nH]c3c1)C2 | -14
61 | NC(=O)COc1cccc(C(=O)Nc2cnc3n2CCCC3)c1 | -5.66
62 | CN(Cc1ccon1)C(=O)C1CC(=O)N(Cc2ccncc2)C1 (stereo unspecified) | -6.33
63 | O=C1O[C@@H]2CN(Cc3cccc(F)c3)C[C@@H]2N1CCCN1CCOCC1 | 9.24
64 | O=C(CCc1cc2n(n1)CCCN(C(=O)c1ccccn1)C2)NC1CC1 | -4.46
65 | COc1ccc2c(c1)CCN(CCC(=O)NC1CCCCC1)CC2 | -9.14
66 | CN1CCCN(C[C@@H]2CN(C(=O)CCC3CCCC3)C[C@@H]2CO)CC1 | -7.86
67 | CCn1nc(C)c(CCNC(=O)C2CCCN(CC(N)=O)C2)c1C (stereo unspecified) | 19.1
68 | Cc1noc(C)c1CN1CC2(CCN(C(=O)c3cscn3)CC2)CC1=O | -10.1
69 | CN1CCN(Cc2nc3ccccc3[nH]2)[C@H]2CS(=O)(=O)C[C@H]21 | -10.2
70 | COc1ccccc1[C@@H]1CN(C(=O)c2csc(C)n2)C[C@H]1C(=O)O | -2.79
71 | O=S1(=O)C[C@@H]2[C@H](C1)N(Cc1cc(Cl)cc(Cl)c1)CCN2CC1CC1 | -17.1
72 | NC(=O)CN1CC2(CCC1=O)CCN(Cc1cc(F)ccc1Cl)CC2 | -11.5
73 | Cc1noc(C)c1C(=O)N(C)Cc1nc(-c2ccccn2)no1 | -1.56
74 | Cc1noc([C@@H]2CCCN2C(=O)C2CCN(C(=O)C3CCC3)CC2)n1 | 10.6
75 | Cc1ccc2cc(C3(O)CCN(C(=O)CN4CCCC4)CC3)ccc2n1 | -3.01
76 | Cc1nc[nH]c1CN1C[C@@H]2CC[C@H](C1)N(C(=O)CCc1cnn(C)c1)C2 | -1.54
